Assay results as given in patent publication US20100240580A1, “AZOLOARINE DERIVATIVES, METHOD FOR THE PRODUCTION THEREOF, PHARMACEUTICALS CONTAINING THESE COMPOUNDS AND THE USE THEREOF” (SANOFI-AVENTIS, priority 2007, published 2010).

Target: T1, SCD1 (Rattus norvegicus, UniProt P07308)
T1 construct: The resuspended microsome fraction was stored at −80° C; from tissue; host or cells: liver microsomes of male Wistar rats fed a carbohydrate-rich, low-fat diet
T1 sequence (P07308 1-358): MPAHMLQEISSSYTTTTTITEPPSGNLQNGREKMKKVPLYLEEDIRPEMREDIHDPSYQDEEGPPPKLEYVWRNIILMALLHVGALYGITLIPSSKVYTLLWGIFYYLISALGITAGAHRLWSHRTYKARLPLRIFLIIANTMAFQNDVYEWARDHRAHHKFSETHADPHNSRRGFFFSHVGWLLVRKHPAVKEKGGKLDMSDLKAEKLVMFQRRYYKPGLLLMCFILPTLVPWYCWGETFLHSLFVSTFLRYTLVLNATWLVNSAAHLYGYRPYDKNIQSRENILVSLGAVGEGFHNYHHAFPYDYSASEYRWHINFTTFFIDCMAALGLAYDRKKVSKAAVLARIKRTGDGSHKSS
Experiment: stearoyl-CoA desaturase (SCD1) activity, thin-layer chromatography assay with rat liver microsomes
Format: biochemical
Settings: compound at 10 μM, [1-14C]-stearic acid, 37° C., 1 h
Protocol: The activity of the compounds of the invention of the formula I was investigated in the following assay system with microsomal enzymes:
The livers of male Wistar rats which (to induce SCD1 expression) have been fed with a carbohydrate-rich, low-fat diet were homogenized with a Potter tissue homogenizer and differential centrifugation in a buffer which contained 250 mM sucrose and 5 mM HEPES (pH 7.0). The resuspended microsome fraction was stored at −80° C. The stearoyl-CoA desaturase activity was determined in a thin-layer chromatography assay with […] stearic acid. Stated briefly, the respective compounds of the invention (in DMSO in a final concentration of 1% [v/v]) were incubated with 15 μg of the rat liver microsomes in 200 μl of assay buffer (6 mM MgCl2, 250 mM sucrose, 150 mM KCl, 40 mM NaF, 100 mM Na2HPO4 (pH 7.4), 1.3 mM ATP, 1.5 mM reduced glutathione, 60 μM CoA, 0.33 mM nicotinamide and 0.94 mM NADH) at room temperature for 10 min. 0.5 μCi of [1-^14C]-stearic acid (55 mCi/mmol) was added, and the mixture was incubated at 37° C. for 1 h. The radiolabeled fatty acids were then hydrolyzed with 2.5 M KOH/MeOH:H2O (4:1) at 65° C. for 4 h, protonated with 280 μl of formic acid and extracted with 500 μl of hexane. The TLC plates were immersed in 10% AgNO3 and heat-activated before use. 150 μl of the hexane phase were put on the plates, and the TLC plates were developed in buffer (chloroform:methanol:acetic acid:water [90:8:1:0.8]) and dried. The plates were read in a PhosphoImager to quantify the SCD1 activity.
The skilled person is able to modify this assay to determine the inhibition of stearoyl-CoA desaturase activity in various respects.

Row | SMILES | % Inhibition (10 μM) [%]
1 | O=C(NCc1ccc(Cl)s1)c1ccc2nc(-c3ccc(Oc4ccccc4)cc3)[nH]c2c1 [Example 8, 2-(4-Phenoxyphenyl)-3H-benzimidazole-5-(5-chlorothiophen-2-ylmethyl)carboxamide] | 37
2 | O=C(NCc1nccs1)c1ccc2nc(-c3ccc(Oc4ccccc4)cc3)[nH]c2c1 [Example 9, 2-(4-Phenoxyphenyl)-3H-benzimidazole-5-(thiazol-2-ylmethyl)carboxamide] | 29
3 | CC(C)CCNC(=O)c1ccc2nc(-c3ccc(Oc4ccccc4Cl)cc3)[nH]c2c1 [Example 13, 2-[4-(2-Chlorophenoxy)phenyl]-3H-benzoimidazole-5-(3-methylbutyl)carboxamide] | 58
4 | O=C(NCCC1CC1)c1ccc2nc(-c3ccc(Oc4ccccc4Cl)cc3)[nH]c2c1 [Example 14, 2-[4-(2-Chlorophenoxy)phenyl]-3H-benzoimidazole-5-(2-cyclopropylethyl)carboxamide] | 80
5 | O=C(NCc1ccc(Cl)s1)c1ccc2nc(-c3ccc(Oc4ccccc4Cl)cc3)[nH]c2c1 [Example 15, 2-[4-(2-Chlorophenoxy)phenyl]-3H-benzoimidazole-5-(5-chlorothiophen-2-yl-methyl)carboxamide] | 95
6 | O=C(NCc1nccs1)c1ccc2nc(-c3ccc(Oc4ccccc4Cl)cc3)[nH]c2c1 [Example 16, 2-[4-(2-Chlorophenoxy)phenyl]-3H-benzoimidazole-5-(thiazol-2-ylmethyl)carboxamide] | 86
7 | O=C(NCc1cccs1)c1ccc2nc(-c3ccc(C(=O)c4ccccc4C(F)(F)F)cc3)[nH]c2c1 [Example 19, 2-[4-(2-Trifluoromethylbenzoyl)phenyl]-3H-benzimidazole-5-(thiophen-2-ylmethyl)-carboxamide] | 100
8 | CC(C)CNC(=O)c1ccc2nc(-c3ccc(C(=O)c4ccccc4C(F)(F)F)cc3)[nH]c2c1 [Example 20, 2-[4-(2-Trifluoromethylbenzoyl)phenyl]-3H-benzoimidazole-5-isobutylcarboxamide] | 77
9 | O=C(NCCC1CC1)c1ccc2nc(-c3ccc(Oc4ccccc4C(F)(F)F)cc3)[nH]c2c1 [Example 23, 2-[4-(2-Trifluoromethylphenoxy)phenyl]-3H-benzimidazole-5-(2-cyclopropylethyl)-carboxamide] | 96
10 | CC(C)CCNC(=O)c1ccc2nc(-c3ccc(Oc4ccccc4C(F)(F)F)cc3)[nH]c2c1 [Example 24, 2-[4-(2-Trifluoromethylphenoxy)phenyl]-3H-benzimidazole-5-(3-methylbutyl)carboxamide] | 77
11 | O=C(NCc1nccs1)c1ccc2nc(-c3ccc(Oc4ccccc4C(F)(F)F)cc3)[nH]c2c1 [Example 25, 2-[4-(2-Trifluoromethylphenoxy)phenyl]-3H-benzimidazole-5-(thiazol-2-ylmethyl)carboxamide] | 100
12 | O=C(NCc1ccc(Cl)s1)c1ccc2nc(-c3ccc(C(=O)c4ccccc4C(F)(F)F)cc3)[nH]c2c1 [Example 27, 2-[4-(2-Trifluoromethylbenzoyl)phenyl]-3H-benzimidazole-5-(5-chlorothiophen-2-ylmethyl)-carboxamide] | 100
13 | O=C(NCc1nccs1)c1ccc2[nH]c(-c3ccc(C(=O)c4ccccc4C(F)(F)F)cc3)nc2c1 [Example 28, 2-[4-(2-Trifluoromethylbenzoyl)phenyl]-1H-benzimidazole-5-(thiazol-2-ylmethyl)-carboxamide] | 100
